Measurements reported in patent publication US20220281848A1, “PYRAZOLE-SUBSTITUTED PYRROLIDINONES AS HERBICIDES” (FMC Corporation, priority 2019, published 2022).

Experiments:
Format in all cases: in vivo
Conditions in all cases: after 13 d
[1] = test system: corn (Zea mays, ZEAMX); assay: Test A pre-emergence, corn
In short: (§1)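 Damage rated visually at 13 d on a 0–100 scale (100 = plant killed). Pre-emergence spray one day after sowing; doses 15.625, 62.5 or 250 g/ha from an acetone/water 50:50 formulation with 0.5% Tween 20. Glasshouse at 24/16° C., 14 h photoperiod, 65% humidity.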

[2] = test system: redroot pigweed (Amaranthus retroflexus, AMARE); assay: Test A post-emergence, redroot pigweed
In short: (§2)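 Visual damage rating (0 no damage to 100 total damage) was made 13 d after spraying. The spray was 15.625, 62.5 or 250 g/ha in 50:50 acetone/water with 0.5% Tween 20, applied to 8-day-old glasshouse plants kept at 24/16° C, 14 h light and 65% humidity.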

[3] = test system: ivy-leaved morning glory (Ipomoea hederacea, IPOHE); assay: Test A post-emergence, ivy-leaved morning glory
In short: as §2

[4] = test system: giant foxtail (Setaria faberi, SETFA); assay: Test A pre-emergence, giant foxtail
In short: as §1

[5] = test system: redroot pigweed (Amaranthus retroflexus, AMARE); assay: Test A pre-emergence, redroot pigweed
In short: as §1

[6] = test system: velvetleaf (Abutilon theophrasti, ABUTH); assay: Test A pre-emergence, velvetleaf
In short: as §1

[7] = test system: giant foxtail (Setaria faberi, SETFA); assay: Test A post-emergence, giant foxtail
In short: as §2

[8] = test system: barnyardgrass (Echinochloa crus-galli, ECHCG); assay: Test A pre-emergence, barnyardgrass
In short: as §1

[9] = test system: corn (Zea mays, ZEAMX); assay: Test A post-emergence, corn
In short: as §2

[10] = test system: barnyardgrass (Echinochloa crus-galli, ECHCG); assay: Test A post-emergence, barnyardgrass
In short: as §2

[11] = test system: ivy-leaved morning glory (Ipomoea hederacea, IPOHE); assay: Test A pre-emergence, ivy-leaved morning glory
In short: as §1

[12] = test system: velvetleaf (Abutilon theophrasti, ABUTH); assay: Test A post-emergence, velvetleaf
In short: as §2

SMILES	damage to plant (100=total damage; 0=no damage) ZEAMX ([1]; Pre-Emergence at 15.625 g/ha)	damage to plant (100=total damage; 0=no damage) ZEAMX ([1]; Pre-Emergence at 62.5 g/ha)	damage to plant (100=total damage; 0=no damage) AMARE ([2]; Post-Emergence at 15.625 g/ha)	damage to plant (100=total damage; 0=no damage) AMARE ([2]; Post-Emergence at 62.5 g/ha)	damage to plant (100=total damage; 0=no damage) IPOHE ([3]; Post-Emergence at 15.625 g/ha)	damage to plant (100=total damage; 0=no damage) IPOHE ([3]; Post-Emergence at 62.5 g/ha)	damage to plant (100=total damage; 0=no damage) SETFA ([4]; Pre-Emergence at 15.625 g/ha)	damage to plant (100=total damage; 0=no damage) SETFA ([4]; Pre-Emergence at 62.5 g/ha)	damage to plant (100=total damage; 0=no damage) AMARE ([5]; Pre-Emergence at 15.625 g/ha)	damage to plant (100=total damage; 0=no damage) AMARE ([5]; Pre-Emergence at 62.5 g/ha)	damage to plant (100=total damage; 0=no damage) ABUTH ([6]; Pre-Emergence at 15.625 g/ha)	damage to plant (100=total damage; 0=no damage) ABUTH ([6]; Pre-Emergence at 62.5 g/ha)	damage to plant (100=total damage; 0=no damage) SETFA ([7]; Post-Emergence at 15.625 g/ha)	damage to plant (100=total damage; 0=no damage) SETFA ([7]; Post-Emergence at 62.5 g/ha)	damage to plant (100=total damage; 0=no damage) ECHCG ([8]; Pre-Emergence at 15.625 g/ha)	damage to plant (100=total damage; 0=no damage) ECHCG ([8]; Pre-Emergence at 62.5 g/ha)	damage to plant (100=total damage; 0=no damage) ZEAMX ([9]; Post-Emergence at 15.625 g/ha)	damage to plant (100=total damage; 0=no damage) ZEAMX ([9]; Post-Emergence at 62.5 g/ha)	damage to plant (100=total damage; 0=no damage) ECHCG ([10]; Post-Emergence at 15.625 g/ha)	damage to plant (100=total damage; 0=no damage) ECHCG ([10]; Post-Emergence at 62.5 g/ha)	other results
CCn1nc(C2CN(C)C(=O)C2C(=O)Nc2cccc(F)c2F)c2cccc(F)c21 (racemic) [Compound 10]	0	70	0	0	0	0	80	90	0	0	0	10	50	80	50	90	0	10	60	90	damage to plant (100=total damage; 0=no damage) ZEAMX ([1]; Pre-Emergence at 250 g/ha): 70; damage to plant (100=total damage; 0=no damage) AMARE ([2]; Post-Emergence at 250 g/ha): 0; damage to plant (100=total damage; 0=no damage) IPOHE ([3]; Post-Emergence at 250 g/ha): 30; damage to plant (100=total damage; 0=no damage) SETFA ([4]; Pre-Emergence at 250 g/ha): 90; damage to plant (100=total damage; 0=no damage) AMARE ([5]; Pre-Emergence at 250 g/ha): 10; damage to plant (100=total damage; 0=no damage) ABUTH ([6]; Pre-Emergence at 250 g/ha): 0; damage to plant (100=total damage; 0=no damage) SETFA ([7]; Post-Emergence at 250 g/ha): 90; damage to plant (100=total damage; 0=no damage) ECHCG ([8]; Pre-Emergence at 250 g/ha): 90; damage to plant (100=total damage; 0=no damage) ZEAMX ([9]; Post-Emergence at 250 g/ha): 70; damage to plant (100=total damage; 0=no damage) ECHCG ([10]; Post-Emergence at 250 g/ha): 90; damage to plant (100=total damage; 0=no damage) IPOHE ([11]; Pre-Emergence at 15.625 g/ha): 0; damage to plant (100=total damage; 0=no damage) IPOHE ([11]; Pre-Emergence at 62.5 g/ha): 30; damage to plant (100=total damage; 0=no damage) IPOHE ([11]; Pre-Emergence at 250 g/ha): 0; damage to plant (100=total damage; 0=no damage) ABUTH ([12]; Post-Emergence at 15.625 g/ha): 0; damage to plant (100=total damage; 0=no damage) ABUTH ([12]; Post-Emergence at 62.5 g/ha): 0; damage to plant (100=total damage; 0=no damage) ABUTH ([12]; Post-Emergence at 250 g/ha): 10
Cn1nc([C@H]2CNC(=O)[C@@H]2C(=O)Nc2cccc(F)n2)cc1C(C)(C)C [Compound 1]	0	0	0	0	0	0	0	0	0	0	0	0	0	0	0	0	0	0	0	0	damage to plant (100=total damage; 0=no damage) IPOHE ([11]; Pre-Emergence at 15.625 g/ha): 0; damage to plant (100=total damage; 0=no damage) IPOHE ([11]; Pre-Emergence at 62.5 g/ha): 0; damage to plant (100=total damage; 0=no damage) ABUTH ([12]; Post-Emergence at 15.625 g/ha): 0; damage to plant (100=total damage; 0=no damage) ABUTH ([12]; Post-Emergence at 62.5 g/ha): 0
